Values after ≈ are worked out from the molar mass of the structure shown. Read-outs that look alike come from different tables or passages of the source.
How the values were obtained:
[1] = tested on: Hemophilus influenzae 259; experiment: gradient-plate agar-dilution method; format: cell-based; conditions: Haemophilus influenzae
[2] = tested on: Streptococcus sp. 9960 (Group D); experiment: gradient-plate agar-dilution method; format: cell-based
[3] = tested on: Hemophilus influenzae 260; experiment: gradient-plate agar-dilution method; format: cell-based; conditions: Haemophilus influenzae
[4] = tested on: Hemophilus influenzae 251; experiment: gradient-plate agar-dilution method; format: cell-based; conditions: Haemophilus influenzae
[5] = tested on: Hemophilus influenzae Brun; experiment: gradient-plate agar-dilution method; format: cell-based; conditions: Haemophilus influenzae
[6] = tested on: Streptococcus sp. X-66 (Group D); experiment: gradient-plate agar-dilution method; format: cell-based
[7] = tested on: Neisseria gonorrhea Lind.; experiment: gradient-plate agar-dilution method; format: cell-based
[8] = tested on: Streptococcus pyogenes; experiment: gradient-plate agar-dilution method; format: cell-based
[9] = tested on: Hemophilus influenzae Dick.; experiment: gradient-plate agar-dilution method; format: cell-based; conditions: Haemophilus influenzae
[10] = tested on: Neisseria gonorrhea Sand.; experiment: gradient-plate agar-dilution method; format: cell-based
[11] = tested on: Streptococcus pneumoniae BI-492; experiment: experimental bacterial infection in mice; format: in vivo; conditions: BI492, sc, two doses, challenge 340 × LD50 (ip), read-out: ED50 × 2
[12] = tested on: Pasteurella multocida (bovine); experiment: standard in vitro tests, Pasteurella; format: cell-based
Text: (§1) Another veterinary aspect of this invention is the activity of the A-40104 antibiotics against Pasteurella species. P. multocida, for example, is a causative agent of respiratory infection in cattle, poultry, and swine. P. hemolytica is a major cause of respiratory disease in cattle. The activity of A-40104 factor A and its dihydro derivative against Pasteurella, as determined by standard in vitro tests, is summarized in Table X.

[13] = tested on: Pasteurella hemolytica; experiment: standard in vitro tests, Pasteurella; format: cell-based
Text: as §1

[14] = tested on: Streptococcus pyogenes C203; experiment: experimental bacterial infection in mice; format: in vivo; conditions: sc, two doses, challenge 1,690 × LD50 (ip), read-out: ED50 × 2
[15] = tested on: Staphylococcus aureus 3055; experiment: experimental bacterial infection in mice; format: in vivo; conditions: two doses, read-out: ED50 × 2
[16] = tested on: experimental bacterial infections; experiment: experimental bacterial infections in mice (general statement); format: in vivo
Protocol: When two doses of these compounds were administered to mice in illustrative infections, the activity observed was measured as an ED50 value [effective dose in mg./kg. to protect 50 percent of the test animals; see Warren Wick, et al., J. Bacteriol. 81, 233-235 (1961)].

[17] = tested on: Streptococcus pneumoniae Bi-343; experiment: experimental bacterial infection in mice; format: in vivo; conditions: BI343, sc, two doses, challenge 30 × LD50 (ip), read-out: ED50 × 2
[18] = tested on: Mycoplasma gallisepticum; experiment: in vitro broth-dilution studies, mycoplasma; format: cell-based
Text: (§2) The minimal inhibitory concentrations (MIC's) of A-40104 factor A; 19,20-dihydro-A-40104 factor A; and the tetraacetyl derivative of A-40104A against various mycoplasma species, as determined by in vitro broth-dilution studies, are summarized in Table IX.

[19] = tested on: Mycoplasma synoviae; experiment: in vitro broth-dilution studies, mycoplasma; format: cell-based
Text: as §2

[20] = tested on: Mycoplasma hyopneumoniae; experiment: in vitro broth-dilution studies, mycoplasma; format: cell-based
Text: as §2

[21] = tested on: Mycoplasma hyorhinis; experiment: in vitro broth-dilution studies, mycoplasma; format: cell-based
Text: as §2

[22] = acute toxicity, intraperitoneal injection in mice; conditions: mouse, in vivo, ip
Text: A special advantage of the A-40104 antibiotics is that they are relatively nontoxic.

[23] = tested on: swine dysentery; conditions: W. E. Brown et al., U.S. Pat. No. 4,041,175; cited from earlier work

Compound: CC1(C)S[C@@H]2[C@H](NC(=O)[C@H](N)c3ccccc3)C(=O)N2[C@H]1C(=O)O [Ampicillin, reference compound]
- MIC [1]: 70 µg/mL (≈ 200 µM)
- MIC [2]: 0.6 µg/mL (≈ 1.72 µM)
- MIC [3]: 70 µg/mL (≈ 200 µM)
- MIC [4]: 70 µg/mL (≈ 200 µM)
- MIC [5]: 0.5 µg/mL (≈ 1.43 µM)
- MIC [6]: 0.8 µg/mL (≈ 2.29 µM)
- MIC [7]: 0.5 µg/mL (≈ 1.43 µM)
- MIC [8]: < 0.01 µg/mL
- MIC [9]: 0.5 µg/mL (≈ 1.43 µM)
- MIC [10]: 0.07 µg/mL (≈ 0.2 µM)

Compound: CCC1(C)CC(OC(=O)CO[C@@H]2OC[C@@H](O)[C@H](O)[C@H]2O)C2(C)C(C)CCC3(CCC(=O)C32)C(C)C1O (some centres unmarked) [Dihydro-A-40104A, 19,20-dihydro A-40104 factor A]
- ED50 [11]: 15.2 mg/kg
- MIC [12]: 6.25 µg/mL (≈ 12.2 µM)
- MIC [13]: 16.5 µg/mL (≈ 32.2 µM)
- ED50 [14]: 5.8 mg/kg
- ED50 ([15]; Staphylococcus aureus, 3055, po, oral, challenge 500 × LD50 (ip)): 27 mg/kg
- ED50 ([15]; Staphylococcus aureus, 3055, po, oral, challenge 3,400 × LD50 (ip)): 28 mg/kg
- ED50 ([15]; Staphylococcus aureus, 3055, sc, sc, challenge 69.5 × LD50 (ip)): ≤ 4.4 mg/kg
- in vivo antimicrobial activity [16]: have shown in vivo antimicrobial activity
- ED50 [17]: 35 mg/kg
- minimal inhibitory concentration (MIC) [18]: 0.195
- minimal inhibitory concentration (MIC) [19]: 0.195
- minimal inhibitory concentration (MIC) [20]: 0.097
- minimal inhibitory concentration (MIC) [21]: 0.195

Compound: C=CC1(C)CC(OC(=O)CO[C@@H]2OC[C@@H](OC(C)=O)[C@H](OC(C)=O)[C@H]2OC(C)=O)C2(C)C(C)CCC3(CCC(=O)C32)C(C)C1OC(C)=O (some centres unmarked) [Tetraacetyl A-40104A, tetraacetyl derivative of A-40104 factor A]
- LD50 [22]: > 300 mg/kg
- minimal inhibitory concentration (MIC) [18]: 12.5
- minimal inhibitory concentration (MIC) [19]: 50.0
- minimal inhibitory concentration (MIC) [20]: 12.5
- minimal inhibitory concentration (MIC) [21]: 25.0

Compound: C=C[C@]1(C)C[C@@H](OC(=O)CO)[C@]2(C)[C@H](C)CC[C@]3(CCC(=O)[C@H]32)[C@@H](C)[C@@H]1O [pleuromutilin]
- effect in treatment of swine dysentery [23]: effective in the treatment of swine dysentery

From US4129721A, “A-40104 antibiotics and process for production thereof” (priority 1977, dated 1978)
